From patent US6458760B1, “Method for treating tissue damaged from ischemia” (Henry Ford Health System, priority 1998, dated 2002) come the findings set out here.

Residues, ends and D or L forms follow the SMILES beside them. *: point of attachment. Cbz = O=C(OCc1ccccc1)*; CHN2 = [N-]=[N+]=C*; Bn = c1ccc(C*)cc1

One test relates to Calpain. The experiment in a line: Calpain inactivation rate, fluorimetric progress curves. In kind it is biochemical. To be noted: second order inactivation rate constant corrected for substrate; substrate Suc-Leu-Tyr-AMC; pH 7.5, 37° C. The procedure:
(“Tian, et al.”) the contents of which are incorporated by reference. More specifically, the value of kobs is given by the slope of a plot of ln [P]∞−[p]t versus t (time). The apparent second-order rate contact for inactivation, k2app was calculated as kobs/[I]. The inactivation-rates (kobs) in the presence of substrate and for different inhibitor concentrations for calpain, cathepsin B and cathepsin L are determined according to the method of Tian, et al. However, k2app is corrected for the presence of substrate (s) to give the second order rate constant k^12app, calculated as k^12app=k2app (1+[s]/Km).
Calpain was assayed fluorimetrically in 1 ml of 50 mM Tris/acetate buffer, pH 7.5, containing 5 mM CaCl2, 2.5 mM DTT(dithiothreitol), 0.1% Triton X-100 at 37° C., using 2.5×10^−4 M Suc-Leu-Tyr-aminomethylcoumarin (AMC) (Novabiochem, Switzerland) as substrate and 50nM (final concentration) of enzyme. The appearance of the 7-amino-4 methylcoumarin product was recorded continuously with a Perkin Elmer 650-10S spectrofluorimeter, a SPEX Fluorolog 1680, or SLM 8000C fluorescence spectrometer with excitation at 370 nm and emission at 460 nm.
Typically, 5 μL of the substrate solution (50 mM stock in DMSO) was added to 1 mL of buffer. Varying concentrations of the inhibitor solution (10 μL of a DMSO […] solution) were added, followed by 10 μL of calpain in the assay buffer. After allowing the reaction mixture to incubate for 2-5 min, during which time a steady baseline level of fluorescence was measured, calcium was added in a 10-μL volume to initiate hydrolysis of the fluorogenic substrate, and the resulting increase in fluorescence was monitored continuously. When inhibitors were tested at very low concentrations, the enzyme concentration was reduced to maintain a minimum of a 10-fold excess of inhibitor over enzyme.

The test system of test [1] is Wistar rats with MCA occlusion. The experiment in a line: Stroke model, 2 h MCA occlusion, i.v. infusion after reperfusion, infarct volume at 7 days. To be noted: for % Hemisphere Infarct Volume (% ± SEM): 2 h MCA occlusion, day 7, control 37 ± 2.6. In kind it is in vivo, rat. How it is done: Male Wistar rat weighing between 270-290 gm are fasted the night prior to surgery. Each rat was then anesthetized with 3.5% halothane, and spontaneously respired with 0.5% halothane in a 2:1 N2O:O2 mixture using a face mask. A normal range of blood gases and pH is maintained during ischemia and reperfusion with the face mask inhalation, as verified by samples taken from a femoral artery PE-50 catheter. Body temperature is maintained constant at 37° C. with a recirculating heating pad and K module with an intrarectal type T thermocouple. The PE-50 catheters are inserted into the femoral artery and vein following induction of anesthesia to obtain the blood gas, glucose and hemoglobin concentrations and to monitor blood pressure.
The right common carotid artery, external carotid artery and internal carotid artery are isolated using microsurgical techniques. A clamp is applied to the common carotid artery and a 4-0 nylon suture with a rounded tip is inserted into the external carotid artery through a small puncture. The clamp on the common carotid artery is removed. The suture is passed distally into the internal carotid artery until it blocks the middle cerebral artery. Two hours after the MCA occlusion, the animal is again anesthetized, and the nylon suture is removed from the internal carotid artery.
Infusion of the inhibitor or vehicle is done by intravenous infusion via the femoral vein.
Syringe pumps were filled under sterile conditions with either isotonic saline/1% DMSO solution as the control or with the concentration of CP-1 or CP-2 indicated in the examples, hereinbelow. The pumps delivered the solution at a rate of 15 μl/min for up to 4 hours.
After anesthesia had been induced in the rat, a catheter was inserted into the femoral vein and tunneled subcutaneously in the posterior neck region. Body temperature was maintained at a constant temperature of 37° C. during surgical procedures. The animals underwent 2 hours of MCA occlusion, and then reperfusion when the suture was withdrawn, and immediately thereafter, the drug was infused for four hours. The animals were killed after a 7-day reperfusion, and the brains were formalin fixed and sliced 6-μm thick into seven coronal sections A-G, and mounted on coated slides. After staining with hematoxylin and eosin, the stroke volume was measured using an image analysis program. The stroke area and the contralateral hemispheric area were calculated by tracing the areas on the computer screen, and the volumes were determined by multiplying the appropriate area by the section interval thickness. The stroke volume is expressed as the percentage of lesion size to the volume of contralateral hemisphere. Statistical analysis was performed using the independent t-test.
CP-1 dissolved in 1% DMSO and isotonic saline was given intravenously to Wistar rats (15 μl/min) at concentrations of 2 μM, 10μM, 50μM and 25μM for 4 hours immediately after reperfusion following two hours of MCA occlusion, in accordance with the procedure described hereinabove. Control animals underwent a similar protocol but they had injected therein 1% DMSO/Saline as the vehicle within four hours. All animals which survived 7 days were sacrificed and the stroke volume calculated. The results are tabulated hereinbelow:
The protocol described hereinabove was repeated with CP-2 used in lieu of CP-1, at doses of 10, 50, 250 and 500 μM.

Another test concerns the target T1, cathepsin B (Rattus norvegicus, UniProt P00787).
T1 construct: the brains were extracted and separated with right and left, cortical and subcortical regions and immediately frozen in liquid nitrogen; from tissue; host or cells: rat brain (cortical and subcortical regions), homogenate
Put plainly: Cathepsin B activity in brain homogenates after 2 h MCA occlusion and infusion. Type of test: in vivo. How it is done: The protocol of Example 6 was followed except as follows: the rats under went two hours of MCA occlusion, they were administered either CP-1 (50 μM) or 1% DMSO/saline for four hours after reperfusion and the rats were sacrificed after 48 hours of survival.
At that time, the brains were extracted and separated with right and left, cortical and subcortical regions and immediately frozen in liquid nitrogen. The samples were homogenized with buffer, titrated, and then reacted with the substrate CBZ-Arg-Arg-AMC with the resultant fluorescence measured with a fluorophotometer. Activity is expressed in units of enzyme activity per mg of soluble brain protein (mean +SEM).

T1 sequence (P00787 80-333): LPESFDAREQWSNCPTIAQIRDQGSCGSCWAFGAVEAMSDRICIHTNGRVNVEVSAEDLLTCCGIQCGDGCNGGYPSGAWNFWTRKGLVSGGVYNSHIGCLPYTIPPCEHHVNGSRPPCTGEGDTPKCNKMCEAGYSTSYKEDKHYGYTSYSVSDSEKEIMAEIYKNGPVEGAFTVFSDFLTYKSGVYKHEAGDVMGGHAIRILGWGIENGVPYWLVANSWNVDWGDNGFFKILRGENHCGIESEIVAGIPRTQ

Consider `[N-]=[N+]=CC(=O)C(COCc1ccccc1)NC(=O)C(Cc1ccccc1)NC(=O)OCc1ccccc1` (stereo not drawn) [CP-1, benzyloxycarbonyl-Phe-Ser(OBz)-CHN2] (Cbz-Phe-Ser(Bn)-CHN2; configuration not given here), for which, in the test with Calpain, the “Calpain k′2app” value is given as under 10 M^−1S^−1. Besides, the “% Hemisphere Infarct Volume (% ± SEM)” value is 39 ± 2.1, p > 0.1% in test [1] (2 μM i.v. 15 μl/min for 4 h after reperfusion); 22 ± 4.7, p = 0.01% in test [1] (10 μM i.v. 15 μl/min for 4 h after reperfusion); 20 ± 4.1, p = 0.003% in test [1] (50 μM i.v. 15 μl/min for 4 h after reperfusion); 23 ± 5.2, p = 0.02% in test [1] (250 μM i.v. 15 μl/min for 4 h after reperfusion). In addition, in test [1] (all doses except 2 μM, reduced from 37% in control), the “area of damage of the cerebral hemisphere” value is on record as “about 20%”. At cathepsin B (50 μM i.v. 4 h after 2 h MCA occlusion, 48 h survival, mean ± SEM, control 0.142 ± 0.02), the “Cathepsin B activity, Left Cortex” value is given as 0.106 ± .01 units of enzyme activity per mg of soluble brain protein. Also, the “Cathepsin B activity, Left Subcortex” value at cathepsin B (50 μM i.v. 4 h after 2 h MCA occlusion, 48 h survival, mean ± SEM, control 0.147 ± 0.02, p < 0.05) was 0.084 ± .01 units of enzyme activity per mg of soluble brain protein. Also, the “Cathepsin B activity, Right Cortex” value at cathepsin B (50 μM i.v. 4 h after 2 h MCA occlusion, 48 h survival, mean ± SEM, control 0.181 ± 0.04) was 0.113 ± 0.01 units of enzyme activity per mg of soluble brain protein. In addition, the “Cathepsin B activity, Right Subcortex” value at cathepsin B (50 μM i.v. 4 h after 2 h MCA occlusion, 48 h survival, mean ± SEM, control 0.198 ± 0.03, p < 0.05) is 0.113 ± 0.02 units of enzyme activity per mg of soluble brain protein. The “cathepsin B activity in the subcortical regions versus vehicle” value on cathepsin B (50 μM infusion after 2 h MCA occlusion) is listed as “significantly lower”.
